Test results as given in patent publication US11458123B2 (Arvinas, Inc., priority 2016, dated 2022).

tested on: tau protein; assay: Tau protein in vitro degradation assay (Western blot, Tau-13 antibody); format: cell-based, human; settings: SK-N-SH cells; 72 hours of incubation; tested at 1000 nM, 300 nM and 100 nM
Description: Tau Protein In Vitro Degradation Assay
To determine effect of PROTACs on tau protein degradation SK-N-SH cells were seeded in a 24-well tissue culture-treated plate for at least 18-hours prior to compound addition. Tau PROTACs were evaluated for tau degradation by lysing the cells in lysis buffer with protease inhibitors following a 72-hour incubation with tau PROTACs at 1000 nM, 300 nM and 100 nM for Table 1 and 300 nM, 100 nM, 33 nM and 11 nM for Table 2. Cell lysates were run on standard SDS-PAGE gels, and tau levels were detected by Western blotting using Tau-13 antibody from Abcam (Cambridge, UK) that binds to all forms of human tau.

Structure (SMILES) | Activity* (highest amount of degradation observed at any dosage, as tau protein remaining)
Cc1ncsc1-c1ccc(CNC(=O)[C@@H]2C[C@@H](O)CN2C(=O)[C@@H](NC(=O)COCCOCCOCCOc2ccc(-c3ccc4c(c3)[nH]c3ccncc34)cn2)C(C)(C)C)cc1 [Compound 1, (2S,4R)-1-((S)-14-(5-(5H-pyrido[4,3-b]indol-7-yl)pyridin-2-yloxy)-2-tert-butyl-4-oxo-6,9,12-trioxa-3-azatetradecane)-4-hydroxy-N-(4-(4-methylthiazol-5-yl)benzyl)pyrrolidine-2-carboxamide] | C (>80% tau protein remaining after 72 hours of incubation with the test compound)
O=C1CCC(N2C(=O)c3cccc(NCCOCCOCCOCCOc4ccc(-c5ccc6c(c5)[nH]c5ccncc56)cn4)c3C2=O)C(=O)N1 (stereo not shown) [Compound 2, 4-(2-(2-(2-(2-(5-(5H-pyrido[4,3-b]indol-7-yl)pyridin-2-yloxy)ethoxy)ethoxy)ethoxy)ethylamino)-2-(2,6-dioxopiperidin-3-yl)isoindoline-1,3-dione] | A (≤50% tau protein remaining after 72 hours of incubation with the test compound)
O=C1CCC(N2C(=O)c3cccc(NCCOCCOCCOc4ccc(-c5ccc6c(c5)[nH]c5ccncc56)cn4)c3C2=O)C(=O)N1 (stereo not shown) [Compound 3, 4-(2-(2-(2-(5-(5H-pyrido[4,3-b]indol-7-yl)pyridin-2-yloxy)ethoxy)ethoxy)ethylamino)-2-(2,6-dioxopiperidin-3-yl)isoindoline-1,3-dione] | A (≤50% tau protein remaining after 72 hours of incubation with the test compound)
O=C1CCC(N2C(=O)c3cccc(NCCOCCOCCOCCOCCOc4ccc(-c5ccc6c(c5)[nH]c5ccncc56)cn4)c3C2=O)C(=O)N1 (stereo not shown) [Compound 4, 4-((14-((5-(5H-pyrido[4,3-b]indol-7-yl)pyridin-2-yl)oxy)-3,6,9,12-tetraoxatetradecyl)amino)-2-(2,6-dioxopiperidin-3-yl)isoindoline-1,3-dione] | A (≤50% tau protein remaining after 72 hours of incubation with the test compound)
Cc1ncsc1-c1ccc(CNC(=O)[C@@H]2C[C@@H](O)CN2C(=O)[C@@H](NC(=O)COCCOCCOc2ccc(-c3ccc4c(c3)[nH]c3ccncc34)cn2)C(C)(C)C)cc1 [Compound 5, (2S,4R)-1-((S)-2-(2-(2-(2-(5-(5H-pyrido[4,3-b]indol-7-yl)pyridin-2-yloxy)ethoxy)ethoxy)acetamido)-3,3-dimethylbutanoyl)-4-hydroxy-N-(4-(4-methylthiazol-5-yl)benzyl)pyrrolidine-2-carboxamide] | C (>80% tau protein remaining after 72 hours of incubation with the test compound)
Cc1ncsc1-c1ccc(CNC(=O)[C@@H]2C[C@@H](O)CN2C(=O)[C@@H](NC(=O)COCCOCCOCCOCCOc2ccc(-c3ccc4c(c3)[nH]c3ccncc34)cn2)C(C)(C)C)cc1 [Compound 6, (2S,4R)-1-((S)-17-(5-(5H-pyrido[4,3-b]indol-7-yl)pyridin-2-yloxy)-2-tert-butyl-4-oxo-6,9,12,15-tetraoxa-3-azaheptadecane)-4-hydroxy-N-(4-(4-methylthiazol-5-yl)benzyl)pyrrolidine-2-carboxamide] | C (>80% tau protein remaining after 72 hours of incubation with the test compound)
Cc1ncsc1-c1ccc(CNC(=O)[C@@H]2C[C@@H](O)CN2C(=O)[C@@H](NC(=O)COCCOCCOCCN2CCN(c3ccn4c(n3)nc3ccccc34)CC2)C(C)(C)C)cc1 [Compound 7, (2S,4R)-1-((S)-14-(4-(benzo[4,5]imidazo[1,2-a]pyrimidin-2-yl)piperazin-1-yl)-2-(tert-butyl)-4-oxo-6,9,12-trioxa-3-azatetradecanoyl)-4-hydroxy-N-(4-(4-methylthiazol-5-yl)benzyl)pyrrolidine-2-carboxamide] | C (>80% tau protein remaining after 72 hours of incubation with the test compound)
Cc1ncsc1-c1ccc(CNC(=O)[C@@H]2C[C@@H](O)CN2C(=O)[C@@H](NC(=O)COCCOCCOCCCOc2ccc3nc(-c4ccc(N(C)C)cc4)ccc3c2)C(C)(C)C)cc1 [Compound 8, (2S,4R)-1-((S)-2-(tert-butyl)-15-((2-(4-(dimethylamino)phenyl)quinolin-6-yl)oxy)-4-oxo-6,9,12-trioxa-3-azapentadecanoyl)-4-hydroxy-N-(4-(4-methylthiazol-5-yl)benzyl)pyrrolidine-2-carboxamide] | C (>80% tau protein remaining after 72 hours of incubation with the test compound)
Cc1ncsc1-c1ccc(CNC(=O)[C@@H]2C[C@@H](O)CN2C(=O)[C@@H](NC(=O)COCCOCCOCCOCCCOc2ccc3nc(-c4ccc(N(C)C)cc4)ccc3c2)C(C)(C)C)cc1 [Compound 9, (2S,4R)-1-((S)-2-tert-butyl-18-(2-(4-(dimethylamino)phenyl)quinolin-6-yloxy)-4-oxo-6,9,12,15-tetraoxa-3-azaoctadecane)-4-hydroxy-N-(4-(4-methylthiazol-5-yl)benzyl)pyrrolidine-2-carboxamide] | C (>80% tau protein remaining after 72 hours of incubation with the test compound)
Cc1ncsc1-c1ccc(CNC(=O)[C@@H]2C[C@@H](O)CN2C(=O)[C@@H](NC(=O)COCCOCCOCC(=O)N2CCN(c3ccn4c(n3)nc3ccccc34)CC2)C(C)(C)C)cc1 [Compound 10] | C (>80% tau protein remaining after 72 hours of incubation with the test compound)
Cc1ncoc1-c1ccc(CNC(=O)[C@@H]2C[C@@H](O)CN2C(=O)[C@@H](NC(=O)COCCOCCOCCN2CCN(c3ccn4c(n3)nc3ccccc34)CC2)C(C)(C)C)cc1 [Compound 11, (2S,4R)-1-((S)-14-(4-(benzo[4,5]imidazo[1,2-a]pyrimidin-2-yl)piperazin-1-yl)-2-(tert-butyl)-4-oxo-6,9,12-trioxa-3-azatetradecanoyl)-4-hydroxy-N-(4-(4-methyloxazol-5-yl)benzyl)pyrrolidine-2-carboxamide] | C (>80% tau protein remaining after 72 hours of incubation with the test compound)
Cc1ncoc1-c1ccc(CNC(=O)[C@@H]2C[C@@H](O)CN2C(=O)[C@@H](NC(=O)COCCOCCOCCOCCN2CCN(c3ccn4c(n3)nc3ccccc34)CC2)C(C)(C)C)cc1 [Compound 12, (2S,4R)-1-((S)-17-(4-(benzo[4,5]imidazo[1,2-a]pyrimidin-2-yl)piperazin-1-yl)-2-(tert-butyl)-4-oxo-6,9,12,15-tetraoxa-3-azaheptadecanoyl)-4-hydroxy-N-(4-(4-methyloxazol-5-yl)benzyl)pyrrolidine-2-carboxamide] | C (>80% tau protein remaining after 72 hours of incubation with the test compound)
Cc1ncoc1-c1ccc(CNC(=O)[C@@H]2C[C@@H](O)CN2C(=O)[C@@H](NC(=O)COCCOCCOCC(=O)N2CCN(c3ccn4c(n3)nc3ccccc34)CC2)C(C)(C)C)cc1 [Compound 13, (2S,4R)-1-((S)-14-(4-(benzo[4,5]imidazo[1,2-a]pyrimidin-2-yl)piperazin-1-yl)-2-(tert-butyl)-4,14-dioxo-6,9,12-trioxa-3-azatetradecanoyl)-4-hydroxy-N-(4-(4-methyloxazol-5-yl)benzyl)pyrrolidine-2-carboxamide] | C (>80% tau protein remaining after 72 hours of incubation with the test compound)
Cc1ncoc1-c1ccc(CNC(=O)[C@@H]2C[C@@H](O)CN2C(=O)[C@@H](NC(=O)COCCOCCOCCOCC(=O)N2CCN(c3ccn4c(n3)nc3ccccc34)CC2)C(C)(C)C)cc1 [Compound 14, (2S,4R)-1-((S)-17-(4-(benzo[4,5]imidazo[1,2-a]pyrimidin-2-yl)piperazin-1-yl)-2-(tert-butyl)-4,17-dioxo-6,9,12,15-tetraoxa-3-azaheptadecanoyl)-4-hydroxy-N-(4-(4-methyloxazol-5-yl)benzyl)pyrrolidine-2-carboxamide] | C (>80% tau protein remaining after 72 hours of incubation with the test compound)
Cc1ncsc1-c1ccc([C@H](C)NC(=O)[C@@H]2C[C@@H](O)CN2C(=O)[C@@H](NC(=O)COCCOCCOCCN2CCN(c3ccn4c(n3)nc3ccccc34)CC2)C(C)(C)C)cc1 [Compound 15, (2S,4R)-1-((S)-14-(4-(benzo[4,5]imidazo[1,2-a]pyrimidin-2-yl)piperazin-1-yl)-2-(tert-butyl)-4-oxo-6,9,12-trioxa-3-azatetradecanoyl)-4-hydroxy-N—((S)-1-(4-(4-methylthiazol-5-yl)phenyl)ethyl)pyrrolidine-2-carboxamide] | C (>80% tau protein remaining after 72 hours of incubation with the test compound)
Cc1ncsc1-c1ccc([C@H](C)NC(=O)[C@@H]2C[C@@H](O)CN2C(=O)[C@@H](NC(=O)COCCOCCOCCOCCN2CCN(c3ccn4c(n3)nc3ccccc34)CC2)C(C)(C)C)cc1 [Compound 16, (2S,4R)-1-((S)-17-(4-(benzo[4,5]imidazo[1,2-a]pyrimidin-2-yl)piperazin-1-yl)-2-(tert-butyl)-4-oxo-6,9,12,15-tetraoxa-3-azaheptadecanoyl)-4-hydroxy-N—((S)-1-(4-(4-methylthiazol-5-yl)phenyl)ethyl)pyrrolidine-2-carboxamide] | C (>80% tau protein remaining after 72 hours of incubation with the test compound)
